Laboratory results as given in the METLIN SMRT retention time set (Domingo-Almenara et al. 2019).

Assay: gradient 5% acetonitrile 3 min, to 50% in 2 min, to 85% in 15 min, held 3 min, 100 µL/min
Settings: column: Zorbax Extend-C18 2.1 x 50 mm; eluents: water / acetonitrile, 0.1% formic acid
How it was run: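 Over 3 months, pure standards in mixtures of ~100 molecules were run by HPLC coupled to a quadrupole time-of-flight mass spectrometer in positive and negative ionization mode. The column was a Zorbax Extend-C18 (2.1 × 50 mm, 1.8 μm) at 100 μL/min, eluted with water and acetonitrile each holding 0.1% formic acid, with 40 μL dead and 900 μL dwell volumes. Retention time was determined from adduct peaks chosen by software and checked manually.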

In the case of NS(=O)(=O)c1ccc(CCNCc2ccc(-c3cccc(Cl)c3)o2)cc1, the RP-LC retention time is reported as 675 s.

For Cc1nn(-c2ccccc2)c(C)c1S(=O)(=O)N1CCC(C(=O)NC2CCCCC2)CC1, the RP-LC retention time was 912 s.

O=C(NCCc1cccs1)C1CCN(S(=O)(=O)c2ccc(-c3noc(C4CC4)n3)cc2)CC1 gave an RP-LC retention time of 946 s.

O=C([C@@H]1C[C@H](Oc2ccccc2)CN1C(=O)CCc1nc2ccccc2s1)N1CCCC1 gave an RP-LC retention time of 815 s.

O=C1CSc2ccc(S(=O)(=O)N3CCN(c4ccccn4)CC3)cc2N1 showed an RP-LC retention time of 604 s.

CNC(=O)c1[nH]c2ccc(C)cc2c1N1CCCC1=O showed an RP-LC retention time of 675 s.

O=C(Nc1ccc(F)cc1)C1CCCN(c2ccc(=O)n(-c3ccc(F)cc3)n2)C1 (stereo not drawn) showed an RP-LC retention time of 849 s.

For O=C(CC1CCCN(c2cnn(CC3CC3)c(=O)c2)C1)N1CCC2(CC1)OCCO2 (stereo not drawn), the RP-LC retention time was 706 s.

For CCOC(=O)c1ccc2nc(NC(=O)c3ccn(C)n3)sc2c1, the RP-LC retention time was 828 s.

Work on COCCc1noc(C2CN(S(=O)(=O)c3ccc(C#N)cc3)C2)n1 yielded an RP-LC retention time of 768 s.

Compound O=C([C@@H]1C[C@H](F)CN1C(=O)Cc1ccc(F)cc1)N1CCCCC1 has an RP-LC retention time of 601 s.

In the case of CCOc1ccc(NC(=O)COc2cc(C(=O)OC)nc3ccc(OC)cc23)cc1, the RP-LC retention time is reported as 817 s.

With CCN1CCN(c2cc(-c3nc(-c4ccc(Cl)cc4)no3)c3ccccc3n2)CC1 the RP-LC retention time was 911 s.

For CC(C)c1ccc(S(=O)(=O)N2CCCC2c2nc(-c3ccccc3)no2)cc1 (stereo not drawn), the RP-LC retention time was 1250 s.

CCOC(=O)C1=C(CN2CCN(C3CCCCC3)CC2)NC(=O)NC1c1ccccc1 (stereo not drawn) gave an RP-LC retention time of 658 s.

Compound CCOC(=O)c1c(C)oc2nc(C)nc(NCCN(Cc3ccccc3)C(C)C)c12 has an RP-LC retention time of 735 s.

For Fc1ccc(OCc2nnc3sc(-c4ccccc4F)nn23)cc1, the RP-LC retention time was 940 s.

With CC(=O)N1CCCSc2ccc(S(=O)(=O)N(C)c3ccc(C)cc3)cc21 the RP-LC retention time was 937 s.

Work on COCCNC(=O)C1COc2ccc(NC(=O)c3ccc(Br)cc3)cc2C1 (stereo not drawn) yielded an RP-LC retention time of 774 s.

Compound CCCC(NC(=O)c1cccc(N(C)C)c1)C(=O)Nc1nc2ccccc2[nH]1 (stereo not drawn) has an RP-LC retention time of 667 s.

Compound COc1cccc(-c2csc(-c3nnn(-c4ccc(Cl)cc4)c3N)n2)c1 has an RP-LC retention time of 1170 s.

In the case of CN1CCC2(CC1)CN(C(=O)Nc1ccccc1)CC2c1nc(-c2ccccc2)no1 (stereo not drawn), the RP-LC retention time is reported as 659 s.

Work on O=S(=O)(NCc1cccnc1-c1ccc(F)cc1)c1cccc(Br)c1 yielded an RP-LC retention time of 800 s.

Cc1cc(C)n(-c2ccc(C(=O)NCc3ccc(C)o3)cn2)n1 showed an RP-LC retention time of 848 s.

In the case of CCOC(=O)c1cc(C2CC2)nc2c1c(=O)n(Cc1ccccc1C)c(=O)n2C, the RP-LC retention time is reported as 1240 s.

In the case of Cc1nn(Cc2ccc(C(=O)NC(C)C)cc2)c(C)c1S(=O)(=O)N1CCC(C)CC1, the RP-LC retention time is reported as 880 s.

In the case of CCNC(=O)NCCc1cn(CCOC)c2ncccc12, the RP-LC retention time is reported as 579 s.

Cc1nc2cc(N3CCCC(C(=O)Nc4ccc5c(c4)OCO5)C3)cnc2nc1C (stereo not drawn) showed an RP-LC retention time of 695 s.

For CC(C)NC(=O)N(C)Cc1ccsc1, the RP-LC retention time was 730 s.

With CCOc1ccccc1-c1nc(-c2ccc3ncn(C)c3c2)no1 the RP-LC retention time was 747 s.

In the case of CCOC(=O)c1[nH]c(C)c(C(=O)C(C)N(CCC(C)C)C(=O)c2ccc(C)cc2)c1C (stereo not drawn), the RP-LC retention time is reported as 1110 s.

With C[C@H]1CN(C(=O)Cc2c(F)cccc2Cl)C[C@@H]1c1nc(-c2ccccc2)no1 the RP-LC retention time was 1100 s.

Work on Cc1nc(Cn2cccc2C(=O)Nc2cc(Cl)ccc2C)no1 yielded an RP-LC retention time of 915 s.

Compound COc1cc2c(cc1CNC(=O)Cn1cnc3cc4c(cc31)OCCO4)OCCCO2 has an RP-LC retention time of 629 s.

COCCNC(=O)c1ccc(-n2nc(Sc3ccc(Cl)cc3)ccc2=O)cc1 showed an RP-LC retention time of 828 s.

Work on CC(NC(=O)c1ccc(-c2ccnc(N3CCCCC3)n2)cc1)c1cccnc1 (stereo not drawn) yielded an RP-LC retention time of 651 s.

CCCS(=O)(=O)N1CCC(c2noc(-c3cccnc3)n2)C1 (stereo not drawn) gave an RP-LC retention time of 730 s.

In the case of O=C(CSc1nnc(-c2cccnc2)o1)c1ccc2c(c1)OCCO2, the RP-LC retention time is reported as 715 s.

With Cc1c(C(=O)N2CCOCC2)cnn1-c1ccc(-c2nc(C3CC3)no2)cn1 the RP-LC retention time was 778 s.

Cn1c(=O)cc(SCC(=O)N2CCN(c3ccccn3)CC2)c2ccc(Cl)cc21 gave an RP-LC retention time of 639 s.

With COc1ccc(-n2c(=O)c(C(=O)NCc3ccc(F)cc3F)c(O)c3cccnc32)cc1 the RP-LC retention time was 1170 s.

Work on c1ccc(OCc2nc(-c3cccc(-c4ccn[nH]4)c3)no2)cc1 yielded an RP-LC retention time of 906 s.

O=S(=O)(Cc1ccccc1)N1CC(c2nc(Cc3ccccc3)no2)C1 gave an RP-LC retention time of 1010 s.

COc1ccc(-c2nc(-c3ccc4c(c3)ncn4CCN3CCCCC3)no2)cc1OC gave an RP-LC retention time of 630 s.

CCOc1ccc(-c2ccc(=O)n(Cc3nc(-c4ccccc4)no3)n2)cc1 gave an RP-LC retention time of 1040 s.

CC(C)CN(CC(C)C)C(=O)C1CCN(S(=O)(=O)c2ccc3c(c2)CCCC(=O)N3)CC1 showed an RP-LC retention time of 851 s.

In the case of Cc1sc2ccn(Cc3ccc(F)cc3)c(=O)c2c1C(=O)N1CCCC1, the RP-LC retention time is reported as 764 s.

Compound COc1c(S(=O)(=O)Nc2cccnc2)ccc(Cl)c1Cl has an RP-LC retention time of 649 s.

In the case of CC1=C(c2ccccc2)S(=O)(=O)N=C1N1CCCN(C(=O)CC(C)(C)C)CC1, the RP-LC retention time is reported as 854 s.

In the case of Cc1ccc(C)c(-c2cn3ccn(-c4cccc(F)c4)c(=O)c3n2)c1, the RP-LC retention time is reported as 892 s.

For Cc1nnsc1C(=O)N1CCC(C(=O)Nc2nccs2)CC1, the RP-LC retention time was 625 s.

With CCN1C(=O)COc2ccc(-c3noc(C4CCCN(S(=O)(=O)c5ccc(C)cc5)C4)n3)cc21 (stereo not drawn) the RP-LC retention time was 1100 s.

O=C(NC1CC1)C1CCN(C(=O)c2ncn3c2COC(c2ccc(Cl)cc2)C3)CC1 (stereo not drawn) showed an RP-LC retention time of 713 s.

In the case of COc1ccc(CNC(=O)c2cn3ccc(C)cc3n2)c(OC)c1, the RP-LC retention time is reported as 730 s.

Work on CCOC(=O)c1cnc(N2CCN(c3ccc(F)cc3)CC2)c2ccccc12 yielded an RP-LC retention time of 1270 s.

Compound CCOc1ccc(Nc2nc(C(=O)Nc3ccc(S(N)(=O)=O)cc3)cs2)cc1 has an RP-LC retention time of 761 s.

For CN1CCC(N2CCN(S(=O)(=O)c3ccccc3F)CC2)C1=O (stereo not drawn), the RP-LC retention time was 545 s.

For Cc1ccc(-c2nc(-c3ccc(-n4ccnc4)nc3)no2)cc1C, the RP-LC retention time was 857 s.

With COc1cc(Cl)ccc1-c1nc(-c2ccc3c(c2)oc(=O)n3C)no1 the RP-LC retention time was 1060 s.

With CCc1nc2cc(-c3noc(Cc4cccc(Cl)c4)n3)ccc2o1 the RP-LC retention time was 1170 s.

Compound CCN1C(=O)COc2ccc(-c3csc(NC(=O)C(C)(C)C)n3)cc21 has an RP-LC retention time of 910 s.

In the case of Cc1cccc(NC(=O)Cn2c(C(C)C)nc3c(c2=O)CCN(Cc2ccccc2)C3)c1, the RP-LC retention time is reported as 728 s.

With O=C1NCCN2CC3(CCN(C(=O)Nc4ccccc4F)CC3)CC12 (stereo not drawn) the RP-LC retention time was 564 s.

O=S(=O)(NCc1cccnc1)c1cc(-c2nnc(-c3ccccc3)o2)ccc1F showed an RP-LC retention time of 673 s.

O=c1c(=O)n(-c2ccccc2)ccn1Cc1nc(-c2cccc(C(F)(F)F)c2)no1 gave an RP-LC retention time of 902 s.

In the case of COCCNC(=O)C1CCN(c2nc3ccc(-c4ccsc4)nc3s2)CC1, the RP-LC retention time is reported as 774 s.

In the case of Cc1sc(-c2cc(C(F)(F)F)on2)cc1S(=O)(=O)Nc1ccc2c(c1)OCCO2, the RP-LC retention time is reported as 1070 s.

O=C(Nc1ccc(-n2cnc(C(=O)N3CCC4(CC3)OCCO4)c2)nc1)C1CC1 gave an RP-LC retention time of 631 s.

Compound Cc1nn(-c2ccc(C(=O)NCc3cc(F)cc(F)c3)cn2)c(C)c1C has an RP-LC retention time of 918 s.

Work on CCc1cc(=O)n(CC(=O)NCc2ccc3c(c2)OCO3)c(N2CCOCC2)n1 yielded an RP-LC retention time of 677 s.

Compound CCn1c(=O)n(-c2ccc(F)cc2)c2nc(-c3ccc(F)c(F)c3)nc(C(N)=O)c21 has an RP-LC retention time of 1050 s.

Compound Cn1nc(-c2nc(C3CC3)no2)c2c1CCN(C(=O)c1cccnc1)C2 has an RP-LC retention time of 642 s.

With CC(C)(CSc1nnnn1-c1ccccc1)NS(=O)(=O)c1ccccc1 the RP-LC retention time was 862 s.

CCCNC(=O)N1CCCC1c1nc(-c2ccccc2)no1 (stereo not drawn) showed an RP-LC retention time of 816 s.

CCc1csc(-c2ccc(N3CCN(C(=O)c4ccc(C#N)cc4F)CC3)nc2)n1 showed an RP-LC retention time of 929 s.

Compound Cc1nn(-c2cc(N3CCCC3)ncn2)c(C)c1CCC(=O)NCc1ccco1 has an RP-LC retention time of 686 s.

With Cc1sc(-c2cc(C(F)(F)F)on2)cc1S(=O)(=O)N1CCc2ccccc21 the RP-LC retention time was 1270 s.

With COc1cc2c(cc1C(=O)NCc1ccc3c(c1)CCCO3)OCCCO2 the RP-LC retention time was 920 s.

In the case of Cc1ccc(Cn2cc(-c3ccncc3)cc2C(=O)Nc2ccc3c(c2)OCO3)cc1, the RP-LC retention time is reported as 760 s.

In the case of Cc1ccc(N2N=NC3C(=O)N(c4cccc(Cl)c4)C(=O)C32)cc1F (stereo not drawn), the RP-LC retention time is reported as 1060 s.

With Clc1cccc(CSc2ncnc3nc[nH]c23)c1 the RP-LC retention time was 765 s.

For COC(=O)c1ccc(NC(=O)N2CCCC2c2ccc(F)cc2)cc1 (stereo not drawn), the RP-LC retention time was 919 s.

Compound CCCS(=O)(=O)c1nc2ccc(NS(=O)(=O)c3ccc(C(C)(C)C)cc3)cc2s1 has an RP-LC retention time of 1110 s.

In the case of Cc1cccc(Sc2nccnc2N2CCCC(C(=O)NCc3cccc(Cl)c3)C2)c1 (stereo not drawn), the RP-LC retention time is reported as 1180 s.

O=C(C1CCCN(c2ccc(-c3ccccc3)nn2)C1)N1CCN(c2ccccn2)CC1 (stereo not drawn) showed an RP-LC retention time of 576 s.

For O=C(Cn1cccc1-c1nc(-c2ccccc2)cs1)NCc1ccco1, the RP-LC retention time was 1030 s.

COc1cc(C(=O)Nc2ccc(-c3cn4cccnc4n3)cc2)cc(OC)c1OC showed an RP-LC retention time of 634 s.

CC(C)(C)c1noc(-c2ccc(-n3cnc(C(=O)NCc4ccccc4)c3)nc2)n1 showed an RP-LC retention time of 1060 s.
